Test results reported in patent publication US20220323406A1, “METHODS AND COMPOSITIONS FOR DIFFERENTIATING STEM CELLS” (Massachusetts Institute of Technology, priority 2019, published 2022).

Key:
[1] = tested on: ENR+CD organoids (ISC to Paneth cell differentiation); test: Primary screen: basal (non-stimulated) lysozyme secretion LYZ.NS, 2.5-D 384-well ENR+CD organoid differentiation; type: cell-based, mouse; conditions: primary screen; for Z.LYZ.NS: standard z score
Text: (§1) High-throughput screening.

[2] = tested on: ENR+CD organoids (ISC to Paneth cell differentiation); test: Primary screen: CCh-stimulated lysozyme secretion LYZ.S, 2.5-D 384-well ENR+CD organoid differentiation; type: cell-based, mouse; conditions: primary screen
Text: as §1

ENR+CD organoids = test: Primary screen: ATP (CellTiter-Glo 3D, CTG) cell number/viability, 2.5-D 384-well ENR+CD organoids; conditions: primary screen;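 also: compounds given at plating and again on day 3 over a 6-day differentiation from ENR+CV stem-cell-enriched precursors, ATP measured on day 6, plate median as control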
[3] = 1st dose row of the treatment (0.08 uM by row order; dose not reprinted)
[4] = 2nd dose row of the treatment (0.40 uM by row order; dose not reprinted)
[5] = 3rd dose row of the treatment (2.00 uM by row order; dose not reprinted)
[6] = 4th dose row of the treatment (10.00 uM by row order; dose not reprinted)

With `CC(C)N(CC[C@H](c1ccccc1)c1cc(CO)ccc1O)C(C)C` [4CE°8C] the “SSMD.LYZ.NS_Rep (strictly standardized mean difference)” value [1, 3] was 0.497, the “SSMD.LYZ.NS_Rep (strictly standardized mean difference)” value [1, 4] was 0.226 and the “SSMD.LYZ.NS_Rep (strictly standardized mean difference)” value [1, 5] was 0.128. For the same compound, the “SSMD.LYZ.NS_Rep (strictly standardized mean difference)” value [1, 6] was −0.861, the Dose.FC.LYZ.NS ([1]; dose 0.08 uM) was 0.069 log2 fold change and the “Z.LYZ.NS (standard z score)” value ([1]; dose 0.08 uM) was 0.601. For the same compound, the Dose.FC.LYZ.NS ([1]; dose 0.40 uM) was 0.047 log2 fold change, the “Z.LYZ.NS (standard z score)” value ([1]; dose 0.40 uM) was 0.413 and the Dose.FC.LYZ.NS ([1]; dose 2.00 uM) was 0.016 log2 fold change. For the same compound, the “Z.LYZ.NS (standard z score)” value ([1]; dose 2.00 uM) was 0.138, the Dose.FC.LYZ.NS ([1]; dose 10.00 uM) was −0.095 log2 fold change and the “Z.LYZ.NS (standard z score)” value ([1]; dose 10.00 uM) was −0.827. For the same compound, the “SSMD.LYZ.S_Rep (strictly standardized mean difference)” value [2, 3] was 0.194, the “Z.LYZ.S (standard z score)” value [2, 3] was 0.205 and the “SSMD.LYZ.S_Rep (strictly standardized mean difference)” value [2, 4] was 0.053. For the same compound, the “Z.LYZ.S (standard z score)” value [2, 4] was 0.073, the “SSMD.LYZ.S_Rep (strictly standardized mean difference)” value [2, 5] was −0.217 and the “Z.LYZ.S (standard z score)” value [2, 5] was −0.358. The “SSMD.LYZ.S_Rep (strictly standardized mean difference)” value [2, 6] was −0.707, the “Z.LYZ.S (standard z score)” value [2, 6] was −0.836 and the Dose.FC.LYZ.S ([2]; dose 0.08 uM) was 0.032 log2 fold change. For the same compound, the Dose.FC.LYZ.S ([2]; dose 0.40 uM) was 0.011 log2 fold change, the Dose.FC.LYZ.S ([2]; dose 2.00 uM) was −0.055 log2 fold change and the Dose.FC.LYZ.S ([2]; dose 10.00 uM) was −0.129 log2 fold change. The “SSMD.CTG.Rep (strictly standardized mean difference)” value (ENR+CD organoids; [3]) was −0.402, the “SSMD.CTG.Rep (strictly standardized mean difference)” value (ENR+CD organoids; [4]) was 0.023 and the “SSMD.CTG.Rep (strictly standardized mean difference)” value (ENR+CD organoids; [5]) was −0.340. For the same compound, the “SSMD.CTG.Rep (strictly standardized mean difference)” value (ENR+CD organoids; [6]) was −0.109, the Dose.FC.CTG (ENR+CD organoids; dose 0.08 uM) was −0.111 log2 fold change and the “Z.CTG (standard z score)” value (ENR+CD organoids; dose 0.08 uM) was −0.265. For the same compound, the Dose.FC.CTG (ENR+CD organoids; dose 0.40 uM) was 0.007 log2 fold change, the “Z.CTG (standard z score)” value (ENR+CD organoids; dose 0.40 uM) was 0.018 and the Dose.FC.CTG (ENR+CD organoids; dose 2.00 uM) was −0.162 log2 fold change. The “Z.CTG (standard z score)” value (ENR+CD organoids; dose 2.00 uM) was −0.387, the Dose.FC.CTG (ENR+CD organoids; dose 10.00 uM) was −0.039 log2 fold change and the “Z.CTG (standard z score)” value (ENR+CD organoids; dose 10.00 uM) was −0.094.
With `C[C@H]1COC2(CCN(c3nc(=O)c4cc(C(F)(F)F)cc([N+](=O)[O-])c4s3)CC2)O1` (racemic) [BTZ043 Racemate] the Dose.FC.LYZ.NS ([1]; dose 0.08 uM) was 0.131 log2 fold change, the “Z.LYZ.NS (standard z score)” value ([1]; dose 0.08 uM) was 1.138 and the Dose.FC.LYZ.NS ([1]; dose 0.40 uM) was 0.186 log2 fold change. For the same compound, the “Z.LYZ.NS (standard z score)” value ([1]; dose 0.40 uM) was 1.619, the Dose.FC.LYZ.NS ([1]; dose 2.00 uM) was 0.089 log2 fold change and the “Z.LYZ.NS (standard z score)” value ([1]; dose 2.00 uM) was 0.776. The Dose.FC.LYZ.NS ([1]; dose 10.00 uM) was 0.100 log2 fold change, the “Z.LYZ.NS (standard z score)” value ([1]; dose 10.00 uM) was 0.870 and the Dose.FC.LYZ.S ([2]; dose 0.08 uM) was 0.199 log2 fold change. For the same compound, the Dose.FC.LYZ.S ([2]; dose 0.40 uM) was 0.252 log2 fold change, the Dose.FC.LYZ.S ([2]; dose 2.00 uM) was 0.038 log2 fold change and the Dose.FC.LYZ.S ([2]; dose 10.00 uM) was 0.070 log2 fold change. The Dose.FC.CTG (ENR+CD organoids; dose 0.08 uM) was 0.497 log2 fold change, the “Z.CTG (standard z score)” value (ENR+CD organoids; dose 0.08 uM) was 1.187 and the Dose.FC.CTG (ENR+CD organoids; dose 0.40 uM) was 0.545 log2 fold change. For the same compound, the “Z.CTG (standard z score)” value (ENR+CD organoids; dose 0.40 uM) was 1.303, the Dose.FC.CTG (ENR+CD organoids; dose 2.00 uM) was 0.063 log2 fold change and the “Z.CTG (standard z score)” value (ENR+CD organoids; dose 2.00 uM) was 0.150. For the same compound, the Dose.FC.CTG (ENR+CD organoids; dose 10.00 uM) was 0.327 log2 fold change and the “Z.CTG (standard z score)” value (ENR+CD organoids; dose 10.00 uM) was 0.782.
With `O=C(c1ccc(Nc2nccc(-c3cc4ccccc4s3)n2)cc1)N1CCC(N2CCCC2)CC1` [IKK-16 (IKK Inhibitor VII)] the “Dose.FC.LYZ.NS (log2 fold change)” value ([1]; dose 0.08 uM) was 0.104, the “Z.LYZ.NS (standard z score)” value ([1]; dose 0.08 uM) was 0.903 and the “Dose.FC.LYZ.NS (log2 fold change)” value ([1]; dose 0.40 uM) was 0.020. The “Z.LYZ.NS (standard z score)” value ([1]; dose 0.40 uM) was 0.176, the “Dose.FC.LYZ.NS (log2 fold change)” value ([1]; dose 2.00 uM) was −0.081 and the “Z.LYZ.NS (standard z score)” value ([1]; dose 2.00 uM) was −0.708. For the same compound, the “Dose.FC.LYZ.NS (log2 fold change)” value ([1]; dose 10.00 uM) was −0.291, the “Z.LYZ.NS (standard z score)” value ([1]; dose 10.00 uM) was −2.531 and the “Dose.FC.LYZ.S (log2 fold change)” value ([2]; dose 0.08 uM) was 0.092. The “Dose.FC.LYZ.S (log2 fold change)” value ([2]; dose 0.40 uM) was 0.028, the “Dose.FC.LYZ.S (log2 fold change)” value ([2]; dose 2.00 uM) was −0.142 and the “Dose.FC.LYZ.S (log2 fold change)” value ([2]; dose 10.00 uM) was −0.383. The “Dose.FC.CTG (log2 fold change)” value (ENR+CD organoids; dose 0.08 uM) was 0.058, the “Z.CTG (standard z score)” value (ENR+CD organoids; dose 0.08 uM) was 0.139 and the “Dose.FC.CTG (log2 fold change)” value (ENR+CD organoids; dose 0.40 uM) was −0.051. The “Z.CTG (standard z score)” value (ENR+CD organoids; dose 0.40 uM) was −0.122, the “Dose.FC.CTG (log2 fold change)” value (ENR+CD organoids; dose 2.00 uM) was −0.431 and the “Z.CTG (standard z score)” value (ENR+CD organoids; dose 2.00 uM) was −1.029. For the same compound, the “Dose.FC.CTG (log2 fold change)” value (ENR+CD organoids; dose 10.00 uM) was −0.950 and the “Z.CTG (standard z score)” value (ENR+CD organoids; dose 10.00 uM) was −2.268.
For `C=C1C(=O)O[C@@H]2/C=C(\C)CC/C=C(\C)CC[C@@H]12` [Costunolide], the Dose.FC.LYZ.NS ([1]; dose 0.08 uM) was 0.131 log2 fold change, the Dose.FC.LYZ.NS ([1]; dose 0.40 uM) was 0.067 log2 fold change and the Dose.FC.LYZ.NS ([1]; dose 2.00 uM) was −0.018 log2 fold change. The Dose.FC.LYZ.NS ([1]; dose 10.00 uM) was 0.047 log2 fold change, the Z.LYZ.NS ([1]; dose 0.08 uM) was 1.143 and the Z.LYZ.NS ([1]; dose 0.40 uM) was 0.585. For the same compound, the Z.LYZ.NS ([1]; dose 2.00 uM) was −0.157, the Z.LYZ.NS ([1]; dose 10.00 uM) was 0.408 and the Dose.FC.LYZ.S ([2]; dose 0.08 uM) was 0.171 log2 fold change. For the same compound, the Dose.FC.LYZ.S ([2]; dose 0.40 uM) was 0.103 log2 fold change, the Dose.FC.LYZ.S ([2]; dose 2.00 uM) was −0.006 log2 fold change and the Dose.FC.LYZ.S ([2]; dose 10.00 uM) was 0.006 log2 fold change. For the same compound, the Dose.FC.CTG (ENR+CD organoids; dose 0.08 uM) was −0.029 log2 fold change, the Dose.FC.CTG (ENR+CD organoids; dose 0.40 uM) was 0.121 log2 fold change and the Dose.FC.CTG (ENR+CD organoids; dose 2.00 uM) was 0.050 log2 fold change. The Dose.FC.CTG (ENR+CD organoids; dose 10.00 uM) was 0.008 log2 fold change.
With `COc1c(O)cc2c(c1O)[C@@H]1O[C@H](CO)[C@@H](O)[C@H](O)[C@H]1OC2=O` [Bergenin] the Dose.FC.LYZ.NS ([1]; dose 0.08 uM) was 0.164 log2 fold change, the “Z.LYZ.NS (standard z score)” value ([1]; dose 0.08 uM) was 1.432 and the Dose.FC.LYZ.NS ([1]; dose 0.40 uM) was 0.098 log2 fold change. The “Z.LYZ.NS (standard z score)” value ([1]; dose 0.40 uM) was 0.852, the Dose.FC.LYZ.NS ([1]; dose 2.00 uM) was 0.080 log2 fold change and the “Z.LYZ.NS (standard z score)” value ([1]; dose 2.00 uM) was 0.699. The Dose.FC.LYZ.NS ([1]; dose 10.00 uM) was 0.103 log2 fold change, the “Z.LYZ.NS (standard z score)” value ([1]; dose 10.00 uM) was 0.898 and the Dose.FC.LYZ.S ([2]; dose 0.08 uM) was 0.198 log2 fold change. It also gave a Dose.FC.LYZ.S ([2]; dose 0.40 uM) of 0.108 log2 fold change, a Dose.FC.LYZ.S ([2]; dose 2.00 uM) of 0.125 log2 fold change and a Dose.FC.LYZ.S ([2]; dose 10.00 uM) of 0.144 log2 fold change. For the same compound, the Dose.FC.CTG (ENR+CD organoids; dose 0.08 uM) was 0.288 log2 fold change, the Dose.FC.CTG (ENR+CD organoids; dose 0.40 uM) was 0.245 log2 fold change and the Dose.FC.CTG (ENR+CD organoids; dose 2.00 uM) was 0.205 log2 fold change. For the same compound, the Dose.FC.CTG (ENR+CD organoids; dose 10.00 uM) was 0.344 log2 fold change.
